# Reference: US11541059B2, “Heterocyclic compounds and uses thereof” (Infinity Pharmaceuticals, Inc., priority 2014, dated 2023)
# Assays:
# human T cells = test: Concanavalin A-induced model for activation of human T cells (IFN-γ); assay type: cell-based; details: isoform selective concentrations
# tumor growth = test: Tumor growth with Compound BB alone or co-administered with 5-FU (FIG. 35); assay type: in vivo
# [1] = tested on: spleen T cell proliferation; test: Ex vivo T-cell proliferation assay with tumor-derived cells; assay type: cell-based, mouse
# [2] = tested on: CXCL12-induced pAKT in T-cells; test: CXCL12-induced pAKT assay in T-cells; assay type: cell-based, human; details: FIG. 9
# Source text: There was a tight correlation between the EC50s observed in the CXCL12-induced pAKT assay and the T-cell migration assay.
# [3] = Pharmacokinetics of Compound BB, single and repeat oral dose; assay type: in vivo, mouse; details: female CB6F1 mice, 2, 7.5, 15 mg/kg PO
# Description: Animals were weighed daily prior to dosing. […] On subsequent dosing days, the animals' condition was noted prior to dosing; the animals were observed within 4 hours of dosing, and at the end of the day.
# Samples were collected at pre-dose 0.25, 0.5, 1, 2, 4, 6 and 24 h following the first dose on day 1 and pre-dose (trough), 0.25, 0.5, 1, 2, 4, 6 and 24 h following the final dose on day 3. Animals received a single oral dose daily for 3 consecutive days. Blood was collected by retro-orbital bleeding for all time points on day 1. All other blood sampling was collected by a cardiac puncture. Blood was collected into K2EDTA tubes and placed on wet ice. Within 15 min of collection, the sample was centrifuged at 10,000 rpm at 4° C. for 10 min in a bench top centrifuge and the plasma transferred to a new microcentrifuge tube.
# [4] = tested on: differentiation of myeloid cells into M2 TAMs; test: Murine M2 TAM differentiation (ARG1); assay type: cell-based, mouse; details: FIG. 22A, 22B
# Source text: High ARG1 (Arginase-1) levels indicate that myeloid cells are differentiating into M2 macrophages, so lower ARG1 levels relative to a control indicate interference with differentiation into M2 macrophages. Expression of Arginase-1 depletes the tumor microenvironment of arginine, thereby promoting T cell death and NK cell inhibition. Schmid et. al., Proceedings: AACR 103rd Annual Meeting 2012, Cancer Research: Apr. 15, 2012; Volume 72, Issue 8, Supplement 1. […] M2 TAMs promote cancer cell survival (FIG. 23).
# [5] = tested on: bone marrow cells differentiating into MDSCs (VEGF, ARG1); test: Myeloid Derived Suppressor Cell differentiation assay; assay type: cell-based; details: FIG. 24A, 24B
# Description: A similar experiment was performed on bone marrow cells differentiating into MDSCs.
# LLC tumor = test: Lewis Lung Carcinoma (LLC tumor brei) model; assay type: in vivo, mouse; details: FIG. 25A, 25B
# Description: Compound BB was tested in the Lewis Lung Carcinoma model, which is known in the art and briefly described hereinabove.
# LLC tumor brei model was prepared and injected subcutaneously into a mouse in the hind flank region. The tumor brei was prepared as follows. LL2-Luc tumor cells were grown in culture in DMEM+10% FBS. Cells were implanted @ 1×10^6 cells/100 uL SC in the flank of C57 Albino mice (male) When tumors reached 1000 mm3, tumors were harvested. Only the white, living tissue was harvested. Any material containing visable blood or necrotic area was isolated away from the tumor tissue. Tumor tissue was placed in a Dounce tissue homoginized with 5 mLs of warm DMEM (no FBS). About 1-2 grams of tumor tissue was collected, homogenized, pooled into 50 mL falcon tube, and cells were counted. Cells were spinned @ […], and FBS was pooled off Cells were resuspended to equal 1×10^7 cells/mL with sterile PBS. 100 uL of cells/mouse SC at the hind flank region were implanted. This process was repeated one more time before conducting brei tumor efficacy study.
# 4T1 tumors = test: 4T1 breast cancer model; assay type: in vivo, mouse
# Description: Plasma is collected for pharmokinetic (PK) analysis.
# Briefly, in this study, treatment was initiated when tumors reached approximately 100 mm^3. […] 1. […] Vehicle+anti-PD-L1 (200 ug); 4.
# Luciferin measurements were taken twice a week.
# [6] = tested on: immune gene expression in KPC tumors; test: RNA expression profiling (TLDA) of KPC pancreatic tumors; assay type: in vivo, mouse; details: 3 mg/kg, with or without PDL-1 antibody
# Description: RNA expression profiling was performed for immuno-phenotyping with a Tagman low density array (TLDA).
# For mouse tumors, snap frozen samples were powdered with a Genogrinder at liquid nitrogen temperatures and RNA was isolated with Trizol. Next, the sample was cleaned-up using Qiashredder, and then using a RNeasy kit.
# CT values were used for analysis. For each sample Si and each gene, the following values were calculated: dCT(Si,gene)=CT(Si,gene)−CT(Si,ACTB) ddCT(Si,gene)=dCT(Si,gene)−median(dCT(vehicle treated samples,gene)) RQ(Si,gene)=2^(−ddCT(Si,gene))
# This produced a matrix of RQ values: 48 genes (rows)×39 samples (cols).
# The analysis used R package Non-negative Matrix Factorization (NMF) with rank=3 and the “lee” algorithm.
# Cyps = test: Time dependent Cyp inhibition; assay type: in vitro ADME
# [7] = tested on: CD206 population in LLC tumors; test: CD206 levels of macrophages in LLC tumors (FACS); assay type: in vivo, mouse; details: alone and in combination with cyclophosphamide
# Description: Tumors were harvested on the last day or if the vehicles reached approx. 3000 mm^3. Tumors were cut in half. One half was cut in half again with ½ fixed in 10% NBF, and the other was frozen in OCT for frozen sections. The remaining half was processed to single cell suspension and evaluated by FACS using two panels. Antibodies used for staining for FACS were as follows. Staining with CD4 and CD8a: CD45-AF700 (BDB560510) at 1.25 ug/ml; […] Staining with CD11b and GR-1: CD45-AF700 (BDB560510) at 1.25 ug/ml; […] CD45-AF700 (BDB560510) at 1.25 ug/ml; […] Staining with MDSC panel: CD45-AF700 (BDB560510) at 1.25 ug/ml; […] Ly6C APC at 2.5 ug/ml; and Ly6G FITC at 2.5 ug/ml.
# GL-261 tumors = test: GL-261 glioma model with or without temozolomide; assay type: in vivo, mouse; details: 15 mg/kg QD PO from the start of treatment, vs vehicle
# Description: TMZ was dosed IP 1×/day for 7 days.
# Animals: C57 Albino mice (male) from Jackson Labs, n=80. Parameters Evaluated:
# In life: Mice were dosed QD with Compound BB. Temozolomide was dosed QD IP, for 7 days. Tumor measurements and bodyweights were taken 2×/week, but caliper and xenogen measurements.
# End point analysis: Tumors were cut in half. One half was cut in half again with ½ fixed in 10% NBF the other was frozen in OCT for frozen sections. The remaining half was processed to single cell suspension and evaluated by FACS.
# PD satellite group—8 mice from the TMZ treated mice and 8 mice from the vehicle treated mice were sacrificed on day 7 post treatment. Tumors were processed to single cell suspension and evaluated by FACS.
structure (smiles),measurement,setting,value
C[C@H](NC(=O)c1c(N)nn2cccnc12)c1cc2cccc(C#Cc3cnn(C)c3)c2c(=O)n1-c1ccccc1 [Compound BB],effect on IFN-γ,human T cells,little to no effect
same,tumor growth,tumor growth; Compound BB alone (FIG. 35),reduction in tumor growth
same,tumor growth,tumor growth; co-administration of Compound BB and 5-FU (FIG. 35),further reduction
same,immune suppressive environment,[1],reduces
same,Inhibition of CXCL12-induced pAKT in T-cells,[2],inhibited CXCL12-induced pAKT in T-cells more strongly than a PI3K-δ inhibitor
same,Stability in serum (24-hour unbound plasma concentration time course),[3],good stability in serum
same,M2 TAM differentiation (ARG1 levels),[4],inhibited M2 TAM differentiation much more effectively than PI3K-δ inhibitor
same,VEGF and ARG1 in MDSC differentiation assay,[5],suppressed both VEGF (FIG. 24A) and ARG1 (FIG. 24B)
same,"Tumor growth, Lewis Lung Carcinoma model",LLC tumor,demonstrated single agent activity
same,"Tumor growth, orthotopic 4T1 breast cancer model","4T1 tumors; 7.5 mg/kg PO QD 3 weeks, FIG. 33A",reduced tumor growth
same,"Tumor growth, subcutaneous 4T1 breast cancer model","4T1 tumors; 15 mg/kg PO QD 2 weeks, FIG. 36",demonstrated single agent activity
same,Anti-tumor effect maintained after discontinuation of treatment,"4T1 tumors; subcutaneous 4T1, FIG. 34",at least 6 days
same,M2 macrophage markers VEGF and ARG-1 (RNA),[6],trended towards reduction
same,Time dep Cyp Inhibition @ 10 uM,Cyps,Neg
same,CD206 population in LLC tumors,[7],decrease in the CD206 population
same,"Tumor volume, GL-261 glioma model",GL-261 tumors,significant reduction in tumor volume
